This note sets out measurements from BindingDB's records for doi:10.1021/jm00001a017 (Bristol-Myers Squibb Pharmaceutical Research Institute, 1995).

The target of the assay is Voltage-dependent L-type calcium channel (Cavia porcellus). Nature of the assay: Displacement of [3H]nitrendipine from dihydropyridine receptor of guinea pig myocardial membranes.

Each structure is given as a SMILES string. pKd: −log10 of the molar value.

Consider `CSC1=NC(C)=C2C(=O)OCCCCCSc3c(cccc3[N+](=O)[O-])C2N1` (stereo unspecified) [4-Methyl-2-methylsulfanyl-13-nitro-3,8,9,10,11,16b-hexahydro-7H-6-oxa-12-thia-1,3-diaza-dibenzo[a,c]cyclododecen-5-one], for which the negative logarithm of the Kd (pKd) is 8.30. As for `CCCCSc1ccccc1C1N=C(SC)Nc2coc(O)c21` (stereo unspecified) [4-(2-Butylsulfanyl-phenyl)-2-methylsulfanyl-4,7-dihydro-1H-furo[3,4-d]pyrimidin-5-one], the figure is below 4.30; as for `COC(=O)C1C(C)=NC(SC)=NC1c1ccccc1SC` (stereo unspecified) [6-Methyl-2-methylsulfanyl-4-(2-methylsulfanyl-phenyl)-1,4-dihydro-pyrimidine-5-carboxylic acid methyl ester], 5.82; as for `CSC1=NC(c2cccc([N+](=O)[O-])c2)C2=C(COC2=O)N1` (stereo unspecified) [2-Methylsulfanyl-4-(3-nitro-phenyl)-4,7-dihydro-1H-furo[3,4-d]pyrimidin-5-one], 4.43.

In the case of `CSC1=NC2C(=C(C)N1)C(=O)OCCCCCSc1ccc([N+](=O)[O-])cc12` (stereo unspecified) [4-Methyl-2-methylsulfanyl-15-nitro-3,8,9,10,11,16b-hexahydro-7H-6-oxa-12-thia-1,3-diaza-dibenzo[a,c]cyclododecen-5-one], the negative logarithm of the Kd (pKd) is 6.06.

As to `COC(=O)C1C(C)=NC(SC)=NC1c1cc([N+](=O)[O-])ccc1SC` (stereo unspecified) [6-Methyl-2-methylsulfanyl-4-(2-methylsulfanyl-5-nitro-phenyl)-1,4-dihydro-pyrimidine-5-carboxylic acid methyl ester], the pKd is 5.57. In the case of `CSC1=NC(c2cc([N+](=O)[O-])ccc2SC)C2=C(COC2=O)N1` (stereo unspecified) [2-Methylsulfanyl-4-(2-methylsulfanyl-5-nitro-phenyl)-4,7-dihydro-1H-furo[3,4-d]pyrimidin-5-one], the pKd was below 4.30.

For `CSC1=NC(c2ccccc2SC)c2c(coc2O)N1` (stereo unspecified) [2-Methylsulfanyl-4-(2-methylsulfanyl-phenyl)-4,7-dihydro-1H-furo[3,4-d]pyrimidin-5-one], the negative logarithm of the Kd (pKd) was 4.34.

In the case of `CSC1=NC2=C(C(=O)OC2)C(c2cccc([N+](=O)[O-])c2SC)N1` (stereo unspecified) [2-Methylsulfanyl-4-(2-methylsulfanyl-3-nitro-phenyl)-4,7-dihydro-1H-furo[3,4-d]pyrimidin-5-one], the pKd was 4.86.

Regarding `COC(=O)C1C(C)=NC(SC)=NC1c1cccc([N+](=O)[O-])c1` (stereo unspecified) [6-Methyl-2-methylsulfanyl-4-(3-nitro-phenyl)-1,4-dihydro-pyrimidine-5-carboxylic acid methyl ester], the pKd is 6.32. As for `CSC1=NC2c3ccccc3SCCCCCOC(=O)C2C(C)=N1` (stereo unspecified) [4-Methyl-2-methylsulfanyl-3,8,9,10,11,16b-hexahydro-7H-6-oxa-12-thia-1,3-diaza-dibenzo[a,c]cyclododecen-5-one], the figure is 7.74.
